Assay results reported in publication PMC3038857, “Using Nuclear Receptor Activity to Stratify Hepatocarcinogens” (PLoS ONE, 2011).

Key:
PXR (NR1I2) = molecular target: T1, PXR (NR1I2) (Homo sapiens, UniProt O75469); assay: ATG_PXRE_CIS: Factorial reporter gene assay (HepG2); type: cell-based; set-up: endogenous in cells; host or cells: HepG2; settings: HepG2; scale not given, looks like -log10 of molar active concentration; 0 = no activity
T1 sequence (O75469 1-434): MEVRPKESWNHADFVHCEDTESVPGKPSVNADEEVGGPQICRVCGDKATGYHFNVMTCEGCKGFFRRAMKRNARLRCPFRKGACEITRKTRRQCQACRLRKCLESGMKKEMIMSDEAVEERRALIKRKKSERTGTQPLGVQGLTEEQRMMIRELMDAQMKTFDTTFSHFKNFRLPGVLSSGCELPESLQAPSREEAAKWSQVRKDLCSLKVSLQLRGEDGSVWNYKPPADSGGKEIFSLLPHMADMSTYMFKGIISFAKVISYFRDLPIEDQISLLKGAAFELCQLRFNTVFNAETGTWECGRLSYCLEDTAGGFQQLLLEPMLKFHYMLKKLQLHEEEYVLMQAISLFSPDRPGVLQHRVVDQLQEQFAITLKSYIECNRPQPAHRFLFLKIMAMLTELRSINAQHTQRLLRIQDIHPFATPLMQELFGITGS
Method in brief: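 HepG2 cells transfected with multiplexed reporter libraries: cis-acting binding-site reporters (CIS) and a one-hybrid nuclear-receptor trans system (TRANS). Chemicals tested at seven concentrations, starting at the maximum tolerated concentration with three-fold serial dilutions.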

CYP2B6 = assay: CLZD_CYP2B6: Change in expression of CYP2B6 (primary human hepatocytes); type: cell-based; settings: 24 hr, scale not given, looks like -log10 of molar active concentration, 0 = no activity
Method in brief: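 Cultured primary human hepatocytes treated with chemicals for 6, 24 or 48 hr across five concentrations spanning 0.004-40 µM, then transcript level measured by quantitative nuclease protection in a multiplexed format.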

[1] = molecular target: T2, ESR1 (estrogen receptor 1) (Homo sapiens, UniProt P03372); assay: ATG_ERa_TRANS: Factorial reporter gene assay (HepG2); type: cell-based; settings: HepG2; scale not given, looks like -log10 of molar active concentration; 0 = no activity
T2 construct: expressed in transfected cells; host or cells: HepG2
Method in brief: (§1)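 Seven concentrations per chemical, three-fold dilutions down from the MTC, were tested in HepG2 hepatoma cells. Those cells carried a multiple reporter transcription unit library, read either as cis transcription-factor-site reporters or as a trans mammalian one-hybrid panel for nuclear receptors.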

Human ER (ESR1) = Human ER (ESR1) (Homo sapiens, UniProt P03372); assay: NVS_NR_hER: Human ER 3H-Estradiol (cell-free HTS); type: binding; settings: scale not given, looks like -log10 of molar active concentration, 0 = no activity
Description: These are a collection of biochemical assays measuring binding constants and enzyme inhibition values. Chemicals were initially screened at a single concentration in duplicate wells at a concentration of 10 [drawing 63] M for cytochrome P-450 assays and 25 [drawing 64] M for all others. […] These assays were run by Caliper Life Sciences (Hanover, MD) under contract to EPA. Short assay descriptions are available at: http://www.caliperls.com/products/contract-research/in-vitro/.
Cell-free HTS Assays: A collection of biochemical assays measuring binding constants and enzyme inhibition values. […] These assays were run by Caliper Life Sciences (Hanover, MD) under contract to EPA. Short assay descriptions are available at http://www.caliperls.com/products/contract-research/in-vitro/. Values for all endpoints were imported into GeneData Screener (Basel, Switzerland) and normalised to solvent controls from the same plate as the tested compounds and expressed as percent of neutral control. Concentration-response curves were fit in GeneData Screener (Basel, Switzerland) Condeseo module using the Hill equation and AC50 values were determined. […] Detailed description of the methods, data and analysis methods for this dataset are described in a separate publication.

LXRb (NR1H2) = molecular target: T3, LXRb (NR1H2) (Homo sapiens, UniProt P55055); assay: ATG_LXRb_TRANS: Factorial reporter gene assay (HepG2); type: cell-based; settings: HepG2; scale not given, looks like -log10 of molar active concentration; 0 = no activity
T3 construct: expressed in transfected cells; host or cells: HepG2
T3 sequence (P55055 1-460): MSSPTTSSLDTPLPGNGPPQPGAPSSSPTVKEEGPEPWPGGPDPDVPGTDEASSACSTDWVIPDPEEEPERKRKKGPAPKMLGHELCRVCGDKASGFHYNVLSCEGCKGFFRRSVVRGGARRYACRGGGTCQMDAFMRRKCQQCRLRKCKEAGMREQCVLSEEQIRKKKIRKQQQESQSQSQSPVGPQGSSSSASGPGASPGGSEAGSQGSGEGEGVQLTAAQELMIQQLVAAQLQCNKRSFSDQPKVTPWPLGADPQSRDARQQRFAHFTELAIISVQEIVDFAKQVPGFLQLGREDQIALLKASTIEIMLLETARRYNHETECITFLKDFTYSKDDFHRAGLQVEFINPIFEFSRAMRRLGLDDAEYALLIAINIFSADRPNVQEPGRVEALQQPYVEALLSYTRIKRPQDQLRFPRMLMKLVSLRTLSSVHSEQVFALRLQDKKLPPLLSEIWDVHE
Method in brief: as §1

Rat Liver = settings: rat chronic study, liver, preneoplastic lesion; coded 6 / 0, code not explained here; ref ToxRefDB; cited from earlier work

T2 sequence (P03372 whole entry): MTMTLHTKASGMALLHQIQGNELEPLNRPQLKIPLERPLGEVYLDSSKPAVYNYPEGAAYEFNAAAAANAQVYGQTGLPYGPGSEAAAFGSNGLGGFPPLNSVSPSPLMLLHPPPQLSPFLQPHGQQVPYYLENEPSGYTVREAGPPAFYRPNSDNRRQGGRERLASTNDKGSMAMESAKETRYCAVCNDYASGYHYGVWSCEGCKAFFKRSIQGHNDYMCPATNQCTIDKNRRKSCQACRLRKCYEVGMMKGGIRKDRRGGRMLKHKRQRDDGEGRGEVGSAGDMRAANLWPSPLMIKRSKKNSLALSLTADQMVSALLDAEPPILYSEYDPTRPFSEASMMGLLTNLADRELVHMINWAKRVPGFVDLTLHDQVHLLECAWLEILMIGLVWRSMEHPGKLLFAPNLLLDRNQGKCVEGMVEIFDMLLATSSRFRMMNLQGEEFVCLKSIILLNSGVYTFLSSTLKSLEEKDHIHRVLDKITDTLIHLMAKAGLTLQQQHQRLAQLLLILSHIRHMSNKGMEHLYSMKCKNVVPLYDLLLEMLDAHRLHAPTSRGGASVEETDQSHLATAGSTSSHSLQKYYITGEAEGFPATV
Sequence of Human ER (ESR1) (P03372 whole entry): as above

SMILES | ATG_PXRE_CIS (PXR (NR1I2)) | CLZD_CYP2B6_24 (CYP2B6) | ATG_ERa_TRANS [1] | NVS_NR_hER (Human ER (ESR1)) | ATG_LXRb_TRANS (LXRb (NR1H2)) | CHR_Rat_Liver_2_PreneoplasticLesion (Rat Liver)
O=C(Nc1ccccc1-c1ccc(Cl)cc1)c1cccnc1Cl [r42] | 5 | 5.164 | 4.569 | 0 | 0 | 6
COc1ccc(-c2ccccc2)cc1NNC(=O)OC(C)C [r38] | 4.921 | 5.354 | 0 | 0 | 0 | 0
CCSC(=O)N(CC(C)C)CC(C)C [r49] | 0 | 6.583 | 0 | 0 | 0 | 0
CC(C)N1C(=O)N(c2ccccc2)CS/C1=N\C(C)(C)C [r45] | 5.456 | 5.247 | 0 | 0 | 0 | 6
COc1nc(C)nc(NC(=O)NS(=O)(=O)c2ccccc2Cl)n1 [r63] | 0 | 0 | 0 | 0 | 0 | 0
CC1=C(C(=O)Nc2ccccc2)SCCO1 [r53] | 4.328 | 4.923 | 0 | 0 | 0 | 0
Cc1c(COC(=O)C2C(/C=C(\Cl)C(F)(F)F)C2(C)C)cccc1-c1ccccc1 (stereo not drawn) [r39] | 4.854 | 5.042 | 4.432 | 0 | 0 | 0
